Reference: patent EP4603506A1, “NOVEL GLP-1 RECEPTOR ANTAGONIST, AND PHARMACEUTICAL COMPOSITION FOR PREVENTING OR TREATING CONGENITAL […] OR HYPOGLYCEMIA, COMPRISING SAME” (Hanmi Pharm. Co., Ltd., priority 2022, dated 2024)
Residues, ends and D or L forms follow the SMILES beside them.

How the values were obtained:
human GLP-1R (hGLP-1R) = human GLP-1R (hGLP-1R) (Homo sapiens, UniProt P43220); test: In vitro cell activity: cAMP inhibition (LANCE Ultra cAMP kit) in CHO cells expressing human GLP-1R, with GLP-1 added; assay type: cell-based; details: relative activity from IC50 of cAMP inhibition; 0.1 nM GLP-1 added; comparative substance exendin-3 (9-39) amide = 100
Chain of human GLP-1R (hGLP-1R) (P43220 24-463): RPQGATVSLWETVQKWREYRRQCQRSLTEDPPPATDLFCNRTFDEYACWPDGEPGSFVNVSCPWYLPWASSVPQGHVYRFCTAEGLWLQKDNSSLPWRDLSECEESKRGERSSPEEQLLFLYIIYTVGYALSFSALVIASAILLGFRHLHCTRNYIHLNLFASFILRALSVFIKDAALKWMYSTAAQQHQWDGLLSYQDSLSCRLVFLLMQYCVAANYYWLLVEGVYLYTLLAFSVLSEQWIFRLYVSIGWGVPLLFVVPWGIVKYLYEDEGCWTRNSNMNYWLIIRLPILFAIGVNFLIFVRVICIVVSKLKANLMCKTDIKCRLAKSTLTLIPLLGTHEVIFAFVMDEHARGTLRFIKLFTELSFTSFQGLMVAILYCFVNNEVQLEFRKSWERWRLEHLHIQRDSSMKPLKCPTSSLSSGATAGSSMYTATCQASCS
Experimental: The human GLP-1R-expressed CHO cells were cultured in a 384-well plate for 24 hours. Thereafter, the culture was removed, and 10 µL of each serially diluted substance was added to the plate, followed by incubation at room temperature for 30 minutes. Then, 5 µL of Eu-cAMP tracer was added, and then 5 µL of a buffer containing cAMP antibodies was added, followed by incubation at room temperature for 60 minutes. […]

C57BL/6N mice = test: Oral glucose tolerance test (OGTT), blood glucose levels; assay type: in vivo; details: 2 g/kg oral glucose after 4-hour fasting, 3690 and 7380 µg/kg subcutaneous, 24 hours before OGTT, versus vehicle control, FIG. 1
Experimental: The test was conducted on 8-week-old male mice, and during the study, five mice were housed in each group and had free access to drinking water. The lights were turned off from 6 PM to 6 AM.
The administration of the drugs was completed 24 hours before the oral glucose tolerance test (OGTT) for Groups 1, 3, and 4, and 30 minutes before for Group 2. Particularly, the dose was expressed as a value based on the value obtained by subtracting the mass of the fatty acid moieties from the total mass of the acylated GLP-1 receptor antagonist analog conjugate, that is, the value obtained by summing the mass of each of only polypeptide moieties.
As for the OGTT, all the groups were orally administered 2 g/kg glucose once after 4-hour fasting, and then blood samples were consecutively collected from the tail vein at specific time intervals (0, 15, 30, 60, and 120 minutes) to measure blood glucose levels by a OneTouch blood glucose meter (OneTouch Select®, LifeScan, USA). Statistical analysis was performed using an unpaired t-test to compare between the control group and the test groups (# ~ ###p < 0.05 ~ 0.001).

[1] = system: PBH rat model (VSG, SD rats); test: Mixed meal tolerance test (MMTT) in postbariatric hypoglycemia (PBH) rat model induced by vertical sleeve gastrectomy (VSG); assay type: in vivo; details: MMTT 4 hours after 3720 µg/kg (1070.5 nmol/kg) subcutaneous, versus excipient, FIG. 2
Experimental: A PBH rat model was established by performing sham operations or VSG surgery on SD rats. The rats were fed a high-fat diet (HFD) for 19 weeks, and divided randomly into two groups with 10 animals each (an excipient control group and a GLP-1R antagonist analog conjugate administered group). […] As for the MMTT, all the groups were orally administered 2 mL of a mixed meal (Ensure Plus®, Abbott, USA) once after 5-hour fasting, and then blood samples were consecutively collected at specific time intervals (0, 15, 30, 45, 60, and 120 minutes) to measure blood glucose levels (GDoctor, Allmedicus Co., Korea). Statistical analysis was performed using the one-way ANOVA to compare between the VSG rat excipient group (control group) and the test groups (* ~ ***p < 0.05 ~ 0.001). Particularly, the dose was expressed as a value based on the value obtained by subtracting the mass of the fatty acid moieties from the total mass of the acylated GLP-1 receptor antagonist analog conjugate, that is, the value obtained by summing the masses of each of only polypeptide moieties.
Additionally, 15 minutes after the MMTT test, plasma was isolated from blood samples, and the insulin secretion level was measured using a rat insulin ELISA kit ([…], Merck Millipore, USA).

## CC[C@H](C)[C@H](NC(=O)[C@H](Cc1ccccc1)NC(=O)[C@H](CCC(=O)O)NC(=O)[C@H](CCCNC(=N)N)NC(=O)[C@@H](NC(=O)[C@H](C)NC(=O)[C@H](CCC(N)=O)NC(=O)[C@H](CCC(=O)O)NC(=O)[C@H](CCC(=O)O)NC(=O)[C@H](CC(C)C)NC(=O)[C@H](Cc1ccc(O)cc1)NC(=O)[C@H](CO)NC(=O)[C@H](CO)NC(=O)[C@@H](NC(=O)[C@H](CC(=O)O)NC(C)=O)C(C)C)C(C)C)C(=O)N[C@@H](C)C(=O)N[C@@H](Cc1c[nH]c2ccccc12)C(=O)N[C@@H](CC(C)C)C(=O)N[C@H](C(=O)N[C@@H](CCCCN)C(=O)NCC(=O)NCC(=O)N1CCC[C@H]1C(=O)N[C@@H](CO)C(=O)N[C@@H](CO)C(=O)NCC(=O)N[C@@H](C)C(=O)N1CCC[C@H]1C(=O)N1CCC[C@H]1C(=O)N1CCC[C@H]1C(=O)N[C@@H](CO)C(N)=O)C(C)C [SEQ ID NO: 9] (Ac-DVSSYLEEQAVREFIAWLVKGGPSSGAPPPS-NH2)
Human GLP-1R (hGLP-1R)
  In vitro activity compared with comparative substance (%): 188.6%

## CC[C@H](C)[C@H](NC(=O)[C@H](Cc1ccccc1)NC(=O)[C@H](CC(C)C)NC(=O)[C@H](CCCNC(=N)N)NC(=O)[C@@H](NC(=O)[C@H](C)NC(=O)[C@H](CCC(=O)O)NC(=O)[C@H](CCC(=O)O)NC(=O)[C@H](CCC(=O)O)NC(=O)[C@H](CC(C)C)NC(=O)[C@H](Cc1ccc(O)cc1)NC(=O)[C@H](CO)NC(=O)[C@H](CO)NC(=O)[C@@H](NC(=O)[C@H](CC(=O)O)NC(C)=O)C(C)C)C(C)C)C(=O)N[C@@H](C)C(=O)N[C@@H](Cc1c[nH]c2ccccc12)C(=O)N[C@@H](CC(C)C)C(=O)N[C@H](C(=O)N[C@@H](CCCCN)C(=O)NCC(=O)NCC(=O)N1CCC[C@H]1C(=O)N[C@@H](CO)C(=O)N[C@@H](CO)C(=O)NCC(=O)N[C@@H](C)C(=O)N1CCC[C@H]1C(=O)N1CCC[C@H]1C(=O)N1CCC[C@H]1C(=O)N[C@@H](CO)C(=O)N[C@@H](CS)C(N)=O)C(C)C [SEQ ID NO: 12] (Ac-DVSSYLEEEAVRLFIAWLVKGGPSSGAPPPSC-NH2)
Human GLP-1R (hGLP-1R)
  In vitro activity compared with comparative substance (%): 189.3%

## DLSSYLEEEAVRLFIEWLKNGGPSSGAPPPSK(2) [SEQ ID NO: 17]
C57BL/6N mice
  blood glucose levels: increased the blood glucose levels in vivo compared with the control group at all the doses
[1]
  blood glucose levels: significantly increased blood glucose levels in vivo compared with PBH rats administered the excipient

## CC[C@H](C)[C@H](NC(=O)[C@H](Cc1ccccc1)NC(=O)[C@H](CC(C)C)NC(=O)[C@H](CCCNC(=N)N)NC(=O)[C@@H](NC(=O)[C@H](C)NC(=O)[C@H](CCC(=O)O)NC(=O)[C@H](CCC(=O)O)NC(=O)[C@H](CCC(=O)O)NC(=O)[C@H](CC(C)C)NC(=O)[C@H](Cc1ccc(O)cc1)NC(=O)[C@H](CO)NC(=O)[C@H](CO)NC(=O)[C@@H](NC(=O)[C@H](CC(=O)O)NC(C)=O)C(C)C)C(C)C)C(=O)N[C@@H](C)C(=O)N[C@@H](Cc1c[nH]c2ccccc12)C(=O)N[C@@H](CC(C)C)C(=O)N[C@H](C(=O)N[C@@H](CCCCNC(=O)COCCOCCNC(=O)COCCOCCNC(=O)CC[C@H](NC(=O)CCCCCCCCCCCCCCCCC(=O)O)C(=O)O)C(=O)NCC(=O)NCC(=O)N1CCC[C@H]1C(=O)N[C@@H](CO)C(=O)N[C@@H](CO)C(=O)NCC(=O)N[C@@H](C)C(=O)N1CCC[C@H]1C(=O)N1CCC[C@H]1C(=O)N1CCC[C@H]1C(=O)N[C@@H](CO)C(N)=O)C(C)C [SEQ ID NO: 15]
Human GLP-1R (hGLP-1R)
  In vitro activity compared with comparative substance (%): 14.3%

## CC[C@H](C)[C@H](NC(=O)[C@H](Cc1ccccc1)NC(=O)[C@H](CC(C)C)NC(=O)[C@H](CCCNC(=N)N)NC(=O)[C@H](C)NC(=O)[C@H](C)NC(=O)[C@H](CCC(=O)O)NC(=O)[C@H](CCC(=O)O)NC(=O)[C@H](CCC(=O)O)NC(=O)[C@H](CC(C)C)NC(=O)[C@H](Cc1ccc(O)cc1)NC(=O)[C@H](CO)NC(=O)[C@H](CO)NC(=O)[C@@H](NC(=O)[C@H](CC(=O)O)NC(C)=O)C(C)C)C(=O)N[C@@H](C)C(=O)N[C@@H](Cc1c[nH]c2ccccc12)C(=O)N[C@@H](CC(C)C)C(=O)N[C@H](C(=O)N[C@@H](CCCCNC(=O)COCCOCCNC(=O)COCCOCCNC(=O)CC[C@H](NC(=O)CCCCCCCCCCCCCCCCC(=O)O)C(=O)O)C(=O)NCC(=O)NCC(=O)N1CCC[C@H]1C(=O)N[C@@H](CO)C(=O)N[C@@H](CO)C(=O)NCC(=O)N[C@@H](C)C(=O)N1CCC[C@H]1C(=O)N1CCC[C@H]1C(=O)N1CCC[C@H]1C(=O)N[C@@H](CO)C(N)=O)C(C)C [SEQ ID NO: 16]
Human GLP-1R (hGLP-1R)
  In vitro activity compared with comparative substance (%): 13.5%

## CC[C@H](C)[C@H](NC(=O)[C@H](Cc1ccccc1)NC(=O)[C@H](CC(C)C)NC(=O)[C@H](CCCNC(=N)N)NC(=O)[C@H](C)NC(=O)[C@H](C)NC(=O)[C@H](CCC(=O)O)NC(=O)[C@H](CCC(=O)O)NC(=O)[C@H](CCC(=O)O)NC(=O)[C@H](CC(C)C)NC(=O)[C@H](Cc1ccc(O)cc1)NC(=O)[C@H](CO)NC(=O)[C@H](CO)NC(=O)[C@H](CC(C)C)NC(=O)[C@H](CC(=O)O)NC(C)=O)C(=O)N[C@@H](CCC(=O)O)C(=O)N[C@@H](Cc1c[nH]c2ccccc12)C(=O)N[C@@H](CC(C)C)C(=O)N[C@@H](CCCCNC(=O)COCCOCCNC(=O)COCCOCCNC(=O)CC[C@H](NC(=O)CCCCCCCCCCCCCCCCC(=O)O)C(=O)O)C(=O)N[C@@H](CC(N)=O)C(=O)NCC(=O)NCC(=O)N1CCC[C@H]1C(=O)N[C@@H](CO)C(=O)N[C@@H](CO)C(=O)NCC(=O)N[C@@H](C)C(=O)N1CCC[C@H]1C(=O)N1CCC[C@H]1C(=O)N1CCC[C@H]1C(=O)N[C@@H](CO)C(N)=O [SEQ ID NO: 14]
Human GLP-1R (hGLP-1R)
  In vitro activity compared with comparative substance (%): 1.7%
